Values of other authors as cited in patent US20080300304A1, “Ginger Fraction For Inhibiting Human Cyp Enzymes” (priority 2005, published 2008).

Row | SMILES | oral availability [%]
1 | CC(C)c1c(C(=O)Nc2ccccc2)c(-c2ccccc2)c(-c2ccc(F)cc2)n1CC[C@@H](O)C[C@@H](O)CC(=O)O [atorvastatin] | 12
2 | COc1cc(N)c(Cl)cc1C(=O)NC1CCN(CCCOc2ccc(F)cc2)CC1OC (stereo not drawn) [cisapride] | 38
3 | CC(=O)O[C@@]12CO[C@@H]1C[C@H](O)[C@@]1(C)C(=O)[C@H](O)C3=C(C)[C@@H](OC(=O)[C@H](O)[C@@H](NC(=O)OC(C)(C)C)c4ccccc4)C[C@@](O)([C@@H](OC(=O)c4ccccc4)[C@H]21)C3(C)C [docetaxel] | 8
4 | CCOC(=O)C1=C(C)NC(C)=C(C(=O)OC)C1c1cccc(Cl)c1Cl (stereo not drawn) [felodipine] | 15
5 | CC[C@H](C)C(=O)O[C@H]1C[C@@H](C)C=C2C=C[C@H](C)[C@H](CC[C@@H]3C[C@@H](O)CC(=O)O3)[C@H]21 [lovastatin] | 4
6 | CO[C@H]1/C=C/O[C@@]2(C)Oc3c(C)c(O)c4c(c3C2=O)C2=NC3(CCN(CC(C)C)CC3)NC2=C(NC(=O)/C(C)=C\C=C\[C@H](C)[C@H](O)[C@@H](C)[C@@H](O)[C@@H](C)[C@H](OC(C)=O)[C@@H]1C)C4=O [rifabutin] | 20
7 | CO[C@H]1C[C@@H]2CC[C@@H](C)[C@@](O)(O2)C(=O)C(=O)N2CCCC[C@H]2C(=O)O[C@H]([C@H](C)C[C@@H]2CC[C@@H](O)[C@H](OC)C2)CC(=O)[C@H](C)/C=C(\C)[C@@H](O)[C@@H](OC)C(=O)[C@H](C)C[C@H](C)/C=C/C=C/C=C/1C [sirolimus] | 15
8 | C=CC[C@@H]1/C=C(\C)C[C@H](C)C[C@H](OC)[C@H]2O[C@@](O)(C(=O)C(=O)N3CCCC[C@H]3C(=O)O[C@H](/C(C)=C/[C@@H]3CC[C@@H](O)[C@H](OC)C3)[C@H](C)[C@@H](O)CC1=O)[C@H](C)C[C@@H]2OC [tacrolimus] | 16
9 | C/C=C/C[C@@H](C)C(=O)[C@H]1C(=O)N[C@@H](C(C)C)C(=O)N(C)CC(=O)N(C)[C@@H](CC(C)C)C(=O)N[C@@H](C(C)C)C(=O)N(C)[C@@H](CC(C)C)C(=O)N[C@@H](C)C(=O)N[C@H](C)C(=O)N(C)[C@@H](CC(C)C)C(=O)N(C)[C@@H](CC(C)C)C(=O)N(C)[C@@H](C(C)C)C(=O)N1C [valspodar] | 34
